Measured values published in patent US20090291934A1, “Method for decomposing an allergen” (Shinshu TLO Co., Ltd., priority 2003, published 2009).

Assays:
[1] = system: fibroblasts derived from Chinese hamster lung (CHL/IU cell); experiment: Experiment on chromosome aberration by using mammalian cells; type: cell-based; settings: positive comparative group, short time
Method: The experiment on chromosome aberration was examined as follows. The experiment doses of the test material were determined by the inhibition experiment of increasing cells. As a result of the inhibition experiment of increasing cells, the concentration of test material in 50% inhibition experiment of increasing cells was 5.0 mg/mL or more in −S9mix method treating in a short time. And the concentration thereof was 0.840 mg/mL in +S9mix method treating in a short time.
As the negative comparative, the non-treating group and the comparative group of the medium were prepared, and as the positive comparative, the mitomycin C (0.05 μg/mL)-treating group was prepared.
Under this experiment, colcemid (available from GIBCO/Lot No. 1125546) was added to laboratory dishes for chromosome specimens to the last concentration of 0.2 μg/mL at 2 hours before making specimens so that cell divisions were stopped in the middle of the division period. After 2 hours, the culture solutions in the laboratory dishes were moved into a conical bottom tube. […] Furthermore, the laboratory dishes prepared for the cell increasing rate were fixed and stained in the same method as the inhibition experiment of increasing cells described above, and the cell increasing rate was measured. […]

[2] = system: guinea pig skin; experiment: Toxicity experiment with rays in guinea pig (Morikawa et al. method); type: in vivo, guinea pig (Crj; Hartley); settings: 0.03 mL of 0.05% 8-methoxypsoralen, UV, all spread parts
Method: In the comparative group of the medium, the clipped backs of the guinea pigs were open spread by 0.03 mL of dimethylsulfoxide.
As the positive comparative group, the clipped backs of the guinea pigs were open spread by 0.03 mL of 0.05% 8-methoxypsoralen. After 30 minutes, they were exposed to ultraviolet rays (about 11.2 Joules/cm^2). The reactions on the skins were evaluated at 24 and 48 hours after exposing to rays.

[3] = system: rabbit eye mucosa; experiment: Irritation experiment on rabbit eye mucosa; type: in vivo, rabbit (Japanese White); settings: for irritation on the rabbit eye mucosa (Kay and Calandra classification): 100 mg powder
Method: Male rabbits at the age of 10 weeks (Japanese White, Kb1:JW(SPF)) were prepared for a washed group (n=3) and a non-washed group (n=3). After pre-bred for 7 days, the rabbits were confirmed normality about changes of body weight and health condition. On the preceding day, they were confirmed about normality of eyes macroscopically and no injury of cornea by fluoresceine staining (fluor-paper, Lot No. 3990849 available from Wyeth-Ayerest Laboratories, USA) using slitlamp (type SL-5: available from Kowa Company, Ltd.) to prepare for experiment.
100 mg of iron phthalocyanine tetracarboxylic acid powder, which was screened through a mesh having 300 μm of aperture once, was put into right conjunctiva of each rabbit, and upper and lower eyelids were gently kept closed for about one second. In the washed group, to remove powder, the conjunctiva was washed with 230-330 mL of lukewarm water at 30 seconds after putting to remove the powder. The left conjunctiva of each rabbit wasn't treated in both groups. The cornea, iris and the conjunctiva in both groups were compared with non-treated eye as reference at 1, 24, 48 and 72 hours after putting. […] The observation results were scored following Draize scoring criteria (Appendix 3), and the irritation was evaluated following Kay and Calandra classification (Appendix 4).

[4] = system: rats; experiment: Toxicity experiment by oral injection of solution dissolving the decomposer to rats (for once)
Method: They were divided into each group according to their body weights measured before housed by a continuous stratified sampling method. Extra rats caused by the method were excluded from the experiment and euthanized.
Following the medical toxicity test guideline, the amount of injection was determined 2000 mg/kg, technical upper limit of oral injection. A comparative group, which a comparative material of purified water in the Japanese Pharmacopoeia was injected, was also prepared. 10 male rats and 10 female rats were divided into two groups respectively.
Their health conditions and life or death were observed continuously before the injection of the solution, at 5, 15, 30 minutes, 1, 2, and 4 hours after the injection, and once a day as from the following day. They were weighed before the injection of the solution, and at 9:00-12:00 on 1, 3, 7, 10, 14th day after the injection. After all the observations, their organs and tissues in heads, chests and abdomens were researched whether normal or not.

[5] = system: guinea pig skin; settings: sensitized with 0.1% DNCB, induced by 0.1% DNCB, 48 hours after inducing
[6] = target: T1, Tick antigen Derf II (Dermatophagoides farinae, UniProt Q00855); experiment: Two-dimensional electrophoresis of tick allergen with and without Fe-Pc-COOK; type: biochemical; settings: Derf II sol. with 0.1 or 0.5 w/v % Fe-Pc-COOK (A) vs tick allergen only (B), silver stain
T1 construct: purchased ASAHI BREWERIES, LTD
T1 sequence (Q00855 18-146): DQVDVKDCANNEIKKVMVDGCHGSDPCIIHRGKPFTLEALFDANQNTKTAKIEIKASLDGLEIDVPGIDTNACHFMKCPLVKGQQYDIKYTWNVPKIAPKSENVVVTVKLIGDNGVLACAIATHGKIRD
From the text: Tick antigen Derf II (available from ASAHI BREWERIES, LTD.) was chosen between the allergens, and we compared electrophoresis of the tick allergen containing iron phthalocyanine tetracarboxylic acid with that of the allergen only.
Iron phthalocyanine tetracarboxylic acid potassium salt (Fe-Pc-COOK) aqueous solution and Derf II solution, which appropriate concentrations (w/v %) were mentioned in Table 4, were mixed with swelling stock solution containing IPG (Immobilized pH Gradient) buffer (8 mol/L Urea, 2 w/v % CHAPS, 2% IPG Buffer, appropriate amount of Bromophenol blue, and distilled water) to prepare experimental solutions of preparing examples 1-4 in Table 4.
Whereas Derf II solution was mixed with swelling stock solution containing IPG buffer to prepare experimental solutions of comparative preparing examples 1-4 in Table 4.
One-dimensional electrophoresis gel films (Strip) of Strip pH4-7 and Strip pH 3-10.5 were prepared, soaked in each experimental solution containing appropriate amount of silicon oil for preventing dry, and treated for 10 hours. After being pulled up and washed, each Strip was subjected to one-dimensional electrophoresis containing silicon oil for preventing dry for 16 hours. […]

[7] = system: guinea pig skin; experiment: Sensitization experiment with rays in guinea pig skin (Adjuvant and Strip method); type: in vivo, guinea pig (Crj; Hartley); settings: sensitized with 5% 6-MC
Method: The procedures were repeated for 5 days and the guinea pigs were sensitized with rays.
In the comparative group of the medium, the guinea pigs were injected with to sensitize and induced by dimethylsulfoxide. […] As the positive comparative group, the guinea pigs were injected with 5% 6-methylcoumarin (6-MC) to sensitize, and induced by 1% 6-MC.

CN(C)N=O [DMN]
appearance frequency of cells whose chromosomes were abnormal structurally ([1]; +S9mix method): 37.5%

COc1c2occc2cc2ccc(=O)oc12 [8-methoxypsoralen]
skin action score [2]: 4

iron phthalocyanine tetracarboxylic acid
irritation on the rabbit eye mucosa (Kay and Calandra classification) ([3]; non-washed group): moderately irritating | irritation on the rabbit eye mucosa (Kay and Calandra classification) ([3]; washed group (washed 30 seconds after putting)): practically nonirritating | time by which reaction of the conjunctiva disappeared ([3]; non-washed group): ≤ 10 days | time by which reactions of the cornea and the iris disappeared ([3]; non-washed group, after putting): ≤ 72 h | time by which slight red conjunctiva disappeared ([3]; washed group, after putting): ≤ 24 h | death during the experiment ([4]; 2000 mg/kg oral once, observed 14 days): no male and female rat | minimum lethal dose ([4]; oral once, male and female rats): ≥ 2000 mg/kg

CO[C@@]12[C@H](COC(N)=O)C3=C(C(=O)C(C)=C(N)C3=O)N1C[C@@H]1N[C@@H]12 [MMC, mitomycin C]
appearance frequency of cells whose chromosomes were abnormal structurally ([1]; -S9mix method): 16%

O=[N+]([O-])c1ccc(Cl)c([N+](=O)[O-])c1 [DNCB, 2,4-dinitrochlorobenzene]
positive rate [5]: 100%

Iron phthalocyanine tetracarboxylic acid potassium salt
effect on tick allergen spots in two-dimensional electrophoresis gel [6]: Disappearance of the spots between pH 5-6

Cc1ccc2oc(=O)ccc2c1 [Example 6-MC, 6-methylcoumarin]
erythema score ([7]; induced by 1% 6-MC and exposed to ultraviolet rays): 2-4 | evaluation of sensitization with rays ([7]; induced by 1% 6-MC, all guinea pigs): positive
